The target of assay [1] is T1, KMT9 (Homo sapiens, UniProt Q9Y5N5).
T1 sequence (Q9Y5N5 1-214): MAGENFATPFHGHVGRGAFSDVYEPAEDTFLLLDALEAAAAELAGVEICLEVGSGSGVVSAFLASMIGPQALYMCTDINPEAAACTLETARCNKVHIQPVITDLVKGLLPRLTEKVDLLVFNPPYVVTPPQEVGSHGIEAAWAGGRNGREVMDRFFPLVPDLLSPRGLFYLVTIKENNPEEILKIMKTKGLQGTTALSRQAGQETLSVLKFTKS
T1 sequence (Q9UI30 1-120 isoform Q9UI30-2 partner): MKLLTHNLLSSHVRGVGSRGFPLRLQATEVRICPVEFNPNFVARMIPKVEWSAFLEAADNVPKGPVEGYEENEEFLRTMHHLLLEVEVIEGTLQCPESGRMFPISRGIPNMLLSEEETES
Kind of assay: Microscale thermophoresis (MST) KMT9 binding. An outline of the steps: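 Kd from microscale thermophoresis: compound series against 20 nM His-KMT9 labelled via RED-Tris-NTA, buffer 25 mM HEPES (pH 7.5)/100 mM NaCl/1 mM DTT/0.05% Tween, 40% MST power, 100% LED. Reported as classes: A ≤10 nM, B >10–100 nM, C >100–1000 nM, D >1000 nM.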
Background: In MST a laser heats a spot of the sample, and binding alters the fluorescence response.

Assay [2] addresses T1, KMT9. Put plainly: KMT9 methyltransferase inhibition assay, MTaseGlo luminescence (from entry 155). The following applies: 100 nM KMT9, 5 μM ETF1, 1 μM SAM. The format is biochemical. The method, then: For the compounds from entry 155 on in Table 1, the following procedure was used to determine IC50 values: The assay was carried out in white, opaque 384-well OptiPlates (PerkinElmer). For IC50 determination, a 2.5x substrate mix (final assay concentrations: 5 μM ETF1, 1 μM SAM and 1x MTaseGlo Reagent), a 2.5x KMT9 solution (final assay concentration 100 nM) and a 5x inhibitor stock 1:1 dilution series (concentration according to the desired range; dilution series was prepared in assay buffer containing 10% DMSO to obtain a final DMSO concentration of 2% in the assay) were prepared. 2 μL of 5x inhibitor stock and 4 μL of 2.5x KMT9 were pipetted, the plate was spun down at 700 rpm for 1 min using a Hettich UNIVERSAL 320 centrifuge and incubated at room temperature (around 25° C.) for 15 min. The reaction was initiated by adding 4 μL of 2.5x substrate mix, the plate was spun down as described before and incubated at 30° C. for 2 h. Afterwards, 10 μL of 2× MTaseGlo Detection solution was added, the plate was centrifuged as described above and incubated for 60 min at room temperature. Luminescence was measured using a PerkinElmer EnVision 2102 Multilabel Reader. Calculation of inhibition and data fitting was carried out as for entries 1-154. described above.
For the results of the methyltransferase inhibition assay shown as “Inhibition” in Table 1, “I” represents an IC50 less than 0.1 μM, “II” represents an IC50 equal or higher than 0.1 μM and less than 1 μM, “III” represents an IC50 equal or higher than 1 µM and less than 10 µM and “IV” represents an IC50 equal or higher than 10 µM

For assay [3], the target named is T1, KMT9. Put plainly: KMT9 thermal shift assay (SyproOrange). The format is binding. Summed up: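 ΔTm versus DMSO-only control is reported in bins (>20 K, 15–20 K, 10–15 K, ≤10 K), using Tm from Boltzmann sigmoidal fits of SyproOrange melt curves. KMT9 with compound in pH 8.5 BTP buffer containing MgCl2 and DTT was preincubated at 25° C, then ramped 1° C per 15 s up to 95° C.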

[4] abbreviates: microscale thermophoresis, His-tag labelled KMT9 (20 nM), read-out: MST.
The mark [5] stands for this setting: from entry 155: MTaseGlo assay, read-out: Inhibition.
The mark [6] stands for this setting: ΔTm, 500 µM compound, 2 μM KMT9, 5X SO, read-out: Thermal shift.
[7] abbreviates: His-tag labelled KMT9 20 nM, read-out: MST (Kd).
The mark [8] stands for this setting: MTaseGlo procedure (entries from 155), read-out: Inhibition (IC50).
[9] abbreviates: 500 µM compound, 2 μM KMT9, read-out: Thermal shift (ΔTm).
Where [10] appears, read: His-tag labelled KMT9 20 nM, Kd class, read-out: MST.
Where [11] appears, read: IC50 class, MTaseGlo procedure (entries from 155 on), read-out: Inhibition.
Where [12] appears, read: ΔTm class, 500 uM compound, 2 μM KMT9, read-out: Thermal shift.

Where two headings read alike, the source gives them in different places.

Take `CCc1cn([C@@H]2C[C@H](CNCCCNCCc3ccc(C(F)(F)F)cc3)[C@@H](O)[C@H]2O)c2ncnc(N)c12` [Compound 379, (1R,2S,3R,5R)-3-(4-amino-5-ethyl-7H-pyrrolo[2,3-d]pyrimidin-7-yl)-5-(((3-((4-(trifluoromethyl)phenethyl)amino)propyl)amino)methyl) cyclopentane-1,2-diol]: the Kd in assay [1] (setting [4]) lay in the range of 100 to 1000 nM. Moreover, the IC50 in assay [2] (setting [5]) lay in the range of 1000 to 10000 nM. In addition, the ΔTm at 500 µM in assay [3] (setting [6]) lay within 10 to 15 °C.

As for `Nc1ncnc2c1ccn2[C@@H]1C[C@H](c2cccs2)[C@@H](O)[C@H]1O` [Compound 390, (1R,2S,3R,5S)-3-(4-amino-7H-pyrrolo[2,3-a]pyrimidin-7-yl)-5-(thiophen-2-yl) cyclopentane-1,2-diol], the Kd in assay [1] (setting [4]) was > 1000 nM. Also, in assay [2] (setting [5]), the IC50 is > 10000 nM. In assay [3] (setting [6]), the ΔTm at 500 µM is ≤ 10 °C.

`Nc1ncnc2c1c(-c1nc(Oc3ccccc3)cs1)cn2[C@@H]1C[C@H](CNCCCNCCc2ccccc2)[C@@H](O)[C@H]1O` [Compound 607, (1R,2S,3R,5R)-3-(4-amino-5-(4-phenoxythiazol-2-yl)-7H-pyrrolo[2,3-d]pyrimidin-7-yl)-5-(((3-(phenethylamino)propyl)amino)methyl)cyclopentane-1,2-diol]: the Kd in assay [1] (setting [4]) lay within 10 to 100 nM. Further, the IC50 in assay [2] (setting [5]) fell in the range of 100 to 1000 nM. Moreover, the ΔTm at 500 µM in assay [3] (setting [6]) was 15 to 20 °C.

Regarding `CN1CCC[C@H]([C@H]2C[C@@H](n3cc(-c4nc(Cc5ccccc5)cs4)c4c(N)nc(Cl)nc43)[C@H](O)[C@@H]2O)C1` [Compound 597R, (1R,2S,3R,5R)-3-(4-Amino-5-(4-benzylthiazol-2-yl)-2-chloro-7H-pyrrolo[2,3-d]pyrimidin-7-yl)-5-((R)-1-methylpiperidin-3-yl)cyclopentane-1,2-diol], the Kd in assay [1] (setting [7]) was ≤ 10 nM. In addition, the IC50 in assay [2] (setting [8]) was 100 to 1000 nM. Further, the ΔTm at 500 µM in assay [3] (setting [9]) was in the range of 15 to 20 °C.

Consider `CN(CCCNCCc1ccc(F)cc1)C[C@H]1C[C@@H](n2cc(-c3nccs3)c3c(N)nc(Cl)nc32)[C@H](O)[C@@H]1O` [Compound 648, (1R,2S,3R,5R)-3-[4-Amino-2-chloro-5-(1,3-thiazol-2-yl)pyrrolo[2,3-d]pyrimidin-7-yl]-5-{[(3-{[2-(4-fluorophenyl)ethyl]amino}propyl)(methyl)amino]methyl}cyclopentane-1,2-diol], for which the Kd in assay [1] (setting [7]) is ≤ 10 nM. In assay [2] (setting [8]), the IC50 is 100 to 1000 nM. The ΔTm at 500 µM in assay [3] (setting [9]) was > 20 °C.

Take `CN(CCCNCCc1ccc(F)cc1)C[C@H]1C[C@@H](n2cc(-c3ccn(Cc4ccccc4)n3)c3c(N)nc(Cl)nc32)[C@H](O)[C@@H]1O` [Compound 643, (1R,2S,3R,5R)-3-[4-Amino-5-(1-benzylpyrazol-3-yl)-2-chloropyrrolo[2,3-d]pyrimidin-7-yl]-5-{[(3-{[2-(4-fluorophenyl)ethyl]amino}propyl)(methyl)amino]methyl}cyclopentane-1,2-diol]: the Kd in assay [1] (setting [7]) was ≤ 10 nM. Besides, the IC50 in assay [2] (setting [8]) is 100 to 1000 nM. For the same molecule, the ΔTm at 500 µM in assay [3] (setting [9]) was > 20 °C.

Take `CCc1cn([C@@H]2C[C@H](CNCCCNCCc3ccc(F)cc3)[C@@H](O)[C@H]2O)c2ncnc(N)c12` [Compound 381, (1R,2S,3R,5R)-3-(4-amino-5-ethyl-7H-pyrrolo[2,3-d]pyrimidin-7-yl)-5-(((3-((4-fluorophenethyl)amino)propyl)amino)methyl) cyclopentane-1,2-diol]: in assay [1] (setting [4]), the Kd was in the range of 100 to 1000 nM. Besides, the IC50 in assay [2] (setting [5]) fell in the range of 1000 to 10000 nM. The ΔTm at 500 µM in assay [3] (setting [6]) lay within 10 to 15 °C.

Consider `Nc1nc(Cl)nc2c1ccn2[C@@H]1C[C@H](c2cccc(OC(F)F)c2)[C@@H](O)[C@H]1O` [Compound 676, (1R,2S,3R,5R)-3-{4-amino-2-chloropyrrolo[2,3-d]pyrimidin-7-yl}-5-[3-(difluoromethoxy)phenyl]cyclopentane-1,2-diol], for which the Kd in assay [1] (setting [7]) is 10 to 100 nM. In assay [2] (setting [8]), the IC50 lay in the range of 1000 to 10000 nM. Also, the ΔTm at 500 µM in assay [3] (setting [9]) is ≤ 10 °C.

For `COc1cc([C@H]2C[C@@H](n3ccc4c(N)nc(Cl)nc43)[C@H](O)[C@@H]2O)ccn1` [Compound 663, (1R,2S,3R,5R)-3-{4-Amino-2-chloropyrrolo[2,3-d]pyrimidin-7-yl}-5-(2-methoxypyridin-4-yl)cyclopentane-1,2-diol], in assay [1] (setting [7]), the Kd fell in the range of 10 to 100 nM. In addition, in assay [2] (setting [8]), the IC50 lay in the range of 100 to 1000 nM. The ΔTm at 500 µM in assay [3] (setting [9]) was ≤ 10 °C.

For `O[C@@H]1[C@H](O)[C@@H](C2CCN(CCc3ccccc3)CC2)C[C@H]1n1cc(-c2nc(Cc3ccccc3)cs2)c2cnc(Cl)nc21` [Compound 498, (1R,2S,3R,5R)-3-(5-(4-Benzylthiazol-2-yl)-2-chloro-7H-pyrrolo[2,3-d]pyrimidin-7-yl)-5-(1-phenethylpiperidin-4-yl)cyclopentane-1,2-diol], the Kd in assay [1] (setting [10]) was in the range of 10 to 100 nM. For the same molecule, the IC50 in assay [2] (setting [11]) was 1000 to 10000 nM. Further, in assay [3] (setting [12]), the ΔTm at 500 µM lay in the range of 10 to 15 °C.

As to `COc1ccc([C@H]2C[C@@H](n3ccc4c(N)nc(Cl)nc43)[C@H](O)[C@@H]2O)cc1` [Compound 682, (1R,2S,3R,5R)-3-{4-Amino-2-chloropyrrolo[2,3-d]pyrimidin-7-yl}-5-(4-methoxyphenyl)cyclopentane-1,2-diol], in assay [1] (setting [7]), the Kd lay within 10 to 100 nM. Moreover, the IC50 in assay [2] (setting [8]) lay in the range of 100 to 1000 nM. In addition, the ΔTm at 500 µM in assay [3] (setting [9]) was in the range of 10 to 15 °C.

`Nc1nc(Cl)nc2c1c(-c1nc(Cc3ccccc3)cs1)cn2[C@@H]1C[C@H](C2CCN(C[C@H]3CCOC3)CC2)[C@@H](O)[C@H]1O` [Compound 521R, (1R,2S,3R,5R)-3-(4-amino-5-(4-benzylthiazol-2-yl)-2-chloro-7H-pyrrolo[2,3-d]pyrimidin-7-yl)-5-(1-(((R)-tetrahydrofuran-3-yl)methyl)piperidin-4-yl)cyclopentane-1,2-diol]: the Kd in assay [1] (setting [7]) fell in the range of 10 to 100 nM. In addition, in assay [2] (setting [8]), the IC50 fell in the range of 1000 to 10000 nM. Also, the ΔTm at 500 µM in assay [3] (setting [9]) lay in the range of 15 to 20 °C.

As for `CN1CC=C([C@H]2C[C@@H](n3cc(-c4nccs4)c4c(N)nc(Cl)nc43)[C@H](O)[C@@H]2O)CC1` [Compound 493, (1R,2S,3R,5R)-3-(4-Amino-2-chloro-5-(thiazol-2-yl)-7H-pyrrolo[2,3-d]pyrimidin-7-yl)-5-(1-methyl-1,2,3,6-tetrahydropyridin-4-yl)cyclopentane-1,2-diol], the Kd in assay [1] (setting [7]) is ≤ 10 nM. Also, the IC50 in assay [2] (setting [8]) fell in the range of 100 to 1000 nM. The ΔTm at 500 µM in assay [3] (setting [9]) is 15 to 20 °C.

Take `COc1cc(OC)cc([C@H]2C[C@@H](n3cc(-c4ccn(C)n4)c4c(N)nc(Cl)nc43)[C@H](O)[C@@H]2O)c1` [Compound 678, (1R,2S,3R,5R)-3-[4-amino-2-chloro-5-(1-methylpyrazol-3-yl)pyrrolo[2,3-d]pyrimidin-7-yl]-5-(3,5-dimethoxyphenyl)cyclopentane-1,2-diol]: the Kd in assay [1] (setting [7]) fell in the range of 100 to 1000 nM. The IC50 in assay [2] (setting [8]) is 1000 to 10000 nM. Also, in assay [3] (setting [9]), the ΔTm at 500 µM was 10 to 15 °C.

Take `Nc1nc(Cl)nc2c1c(-c1ccccc1)cn2[C@@H]1C[C@H](CNCCCNCCc2ccc(F)cc2)[C@@H](O)[C@H]1O` [Compound 566, (1R,2S,3R,5R)-3-(4-amino-2-chloro-5-phenyl-7/pyrrolo[2,3-d]pyrimidin-7-yl)-5-(( (3-((4-fluorophenethyl)amino)propyl)amino)methyl)cyclopentane-1,2-diol]: the Kd in assay [1] (setting [10]) is ≤ 10 nM. The IC50 in assay [2] (setting [11]) was 100 to 1000 nM. The ΔTm at 500 µM in assay [3] (setting [12]) is > 20 °C.

The record behind these values is US20250188110A1, “SPECIFIC SMALL MOLECULE INHIBITORS THAT BLOCK KMT9 METHYLTRANSFERASE ACTIVITY AND FUNCTION” (ALBERT-LUDWIGS-UNIVERSITÄT FREIBURG, priority 2021, published 2025).
